In patent US12673961B2 (Agios Pharmaceuticals, Inc., priority 2022, dated 2026):

Target: T1, human PAH with the R408W mutation (Homo sapiens, UniProt P00439, R408W)
T1 construct: expressed in transfected cells
T1 sequence (P00439 1-452 R408W): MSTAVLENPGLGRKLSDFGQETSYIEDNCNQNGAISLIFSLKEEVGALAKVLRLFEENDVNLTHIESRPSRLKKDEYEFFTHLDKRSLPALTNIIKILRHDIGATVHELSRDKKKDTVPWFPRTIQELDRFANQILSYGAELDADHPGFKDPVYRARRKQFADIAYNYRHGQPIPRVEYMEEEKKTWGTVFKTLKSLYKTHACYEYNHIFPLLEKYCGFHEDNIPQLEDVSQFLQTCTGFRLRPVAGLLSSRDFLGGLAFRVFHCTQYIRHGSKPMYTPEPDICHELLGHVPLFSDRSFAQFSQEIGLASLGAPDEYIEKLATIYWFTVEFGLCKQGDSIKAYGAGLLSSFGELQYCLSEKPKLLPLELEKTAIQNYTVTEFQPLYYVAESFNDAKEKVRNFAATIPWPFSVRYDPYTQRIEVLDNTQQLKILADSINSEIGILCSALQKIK
Test: Cell Based Phenylalanine Flux Assay;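 also: Ten-point dose curve from 2-fold serial dilutions, run in duplicate at 0.5% DMSO final, tracer step used 20 µM sepiapterin and 800 µM labeled phenylalanine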
Details: A375 cells expressing human R408W PAH; 24 hrs with compound, then sepiapterin and 13C9,15N-Phenylalanine for 4 hours; 13C-Tyrosine by LC-MS; average where tested multiple times; read-out: AC50

Structure (SMILES)	AC50
COc1cccn2nc([C@@H]3c4nc[nH]c4CCN3C(=O)c3cnn4cc(-c5ccn(C)n5)ccc34)cc12 [Example 1748, (S)-(4-(4-methoxypyrazolo [1,5-a]pyridin-2-yl)-6,7-dihydro-1H-imidazo[4,5-c]pyridin-5(4H)-yl)(6-(1-methyl-1H-pyrazol-3-yl)pyrazolo[1,5-a]pyridin-3-yl)methanone]	500 to 1000 nM
FC(F)c1cccn2nc([C@H]3c4nc[nH]c4CCN3c3nnc(C(F)(F)F)o3)cc12 [Example 1766, (R)-2-(4-(4-(difluoromethyl)pyrazolo[1,5-a]pyridin-2-yl)-6,7-dihydro-1H-imidazo [4,5-c]pyridin-5(4H)-yl)-5-(trifluoromethyl)-1,3,4-oxadiazole]	500 to 1000 nM
CN(C)c1ccc2c(C(=O)N3CCc4[nH]cnc4[C@H]3c3cc4c(F)cccn4n3)cnn2c1 [Example 1772, (S)-(6-(dimethylamino)pyrazolo[1,5-a]pyridin-3-yl)(4-(4-fluoropyrazolo[1,5-a]pyridin-2-yl)-6,7-dihydro-1H-imidazo[4,5-c]pyridin-5(4H)-yl)methanone]	500 to 1000 nM
Fc1cccn2nc([C@@H]3c4nc[nH]c4CCN3c3ncc(C(F)(F)F)cn3)cc12 [Example 1778, (S)-4-(4-fluoropyrazolo [1,5-a]pyridin-2-yl)-5-(5-(trifluoromethyl)pyrimidin-2-yl)-4,5,6,7-tetrahydro-1H-imidazo[4,5-c]pyridine]	< 500 nM
Cc1cccc2cc([C@@H]3c4nc[nH]c4CCN3c3ncc(C(F)(F)F)cn3)nn12 [Example 1802, (S)-4-(7-methylpyrazolo [1,5-a]pyridin-2-yl)-5-(5-(trifluoromethyl)pyrimidin-2-yl)-4,5,6,7-tetrahydro-1H-imidazo[4,5-c]pyridine]	500 to 1000 nM
Fc1cccn2nc([C@H]3c4nc[nH]c4CCN3c3nnc(C(F)(F)F)o3)cc12 [Example 1822, (R)-2-(4-(4-fluoropyrazolo [1,5-a]pyridin-2-yl)-6,7-dihydro-1H-imidazo [4,5-c]pyridin-5(4H)-yl)-5-(trifluoromethyl)-1,3,4-oxadiazole]	> 5000 nM
Fc1cccn2nc([C@@H]3c4nc[nH]c4CCN3c3nnc(C(F)(F)F)o3)cc12 [Example 1823]	500 to 1000 nM
Fc1cccc(F)c1-c1nnc(N2CCc3[nH]cnc3[C@H]2c2cc3c(F)cccn3n2)o1 [Example 1865, (S)-2-(2,6-difluorophenyl)-5-(4-(4-fluoropyrazolo[1,5-a]pyridin-2-yl)-1,4,6,7-tetrahydro-5H-imidazo[4,5-c]pyridin-5-yl)-1,3,4-oxadiazole]	< 500 nM
CC(C)(C)c1ncc(C(=O)N2CCc3[nH]cnc3[C@H]2c2cc3ccccn3n2)o1 [Example 1866, (S)-(2-(tert-butyl)oxazol-5-yl)(4-(pyrazolo[1,5-a]pyridin-2-yl)-1,4,6,7-tetrahydro-5H-imidazo[4,5-c]pyridin-5-yl)methanone]	< 500 nM
Fc1ccc(-c2nnc(N3CCc4[nH]cnc4[C@@H]3c3cc4c(C(F)F)cccn4n3)o2)cc1 [Example 1912, (R)-2-(4-(4-(difluoromethyl)pyrazolo[1,5-a]pyridin-2-yl)-1,4,6,7-tetrahydro-5H-imidazo[4,5-c]pyridin-5-yl)-5-(4-fluorophenyl)-1,3,4-oxadiazole]	> 5000 nM
Fc1ccc(-c2nnc(N3CCc4[nH]cnc4[C@H]3c3cc4c(C(F)F)cccn4n3)o2)cc1 [Example 1913, (S)-2-(4-(4-(difluoromethyl)pyrazolo[1,5-a]pyridin-2-yl)-1,4,6,7-tetrahydro-5H-imidazo [4,5-c]pyridin-5-yl)-5-(4-fluorophenyl)-1,3,4-oxadiazole]	< 500 nM
Cc1cccn2nc([C@@H]3c4nc[nH]c4CCN3C(=O)c3cnc(C(C)(C)C)o3)cc12 [Example 1920, (S)-(2-(tert-butyl)oxazol-5-yl)(4-(4-methylpyrazolo[1,5-a]pyridin-2-yl)-1,4,6,7-tetrahydro-5H-imidazo[4,5-c]pyridin-5-yl)methanone]	< 500 nM

Continued, values first:

AC50	Structure (SMILES)
500 to 1000 nM	O=C(c1nnc(-c2cnccn2)o1)N1CCc2[nH]cnc2[C@H]1c1cc2c(C3CC3)cccn2n1 [Example 1857, (S)-(4-(4-cyclopropylpyrazolo [1,5-a]pyridin-2-yl)-1,4,6,7-tetrahydro-5H-imidazo[4,5-c]pyridin-5-yl)(5-(pyrazin-2-yl)-1,3,4-oxadiazol-2-yl)methanone]
> 5000 nM	Cn1ccc(-c2nnc(C(=O)N3CCc4[nH]cnc4[C@@H]3c3cc4c(Br)cccn4n3)o2)n1 [Example 1888, (R)-(4-(4-bromopyrazolo [1,5-a]pyridin-2-yl)-1,4,6,7-tetrahydro-5H-imidazo[4,5-c]pyridin-5-yl)(5-(1-methyl-1H-pyrazol-3-yl)-1,3,4-oxadiazol-2-yl)methanone]
< 500 nM	CCc1cccn2nc([C@@H]3c4nc[nH]c4CCN3C(=O)c3nnc(-c4ccccn4)o3)cc12 [Example 1895, (S)-(4-(4-ethylpyrazolo[1,5-a]pyridin-2-yl)-1,4,6,7-tetrahydro-5H-imidazo[4,5-c]pyridin-5-yl)(5-(pyridin-2-yl)-1,3,4-oxadiazol-2-yl) methanone]
500 to 1000 nM	O=C(c1nnc(-c2ccccn2)o1)N1CCc2[nH]cnc2[C@H]1c1cc2c(C3CC3)cccn2n1 [Example 1897, (S)-(4-(4-cyclopropylpyrazolo [1,5-a]pyridin-2-yl)-1,4,6,7-tetrahydro-5H-imidazo [4,5-c]pyridin-5-yl)(5-(pyridin-2-yl)-1,3,4-oxadiazol-2-yl)methanone]
> 5000 nM	Cn1ccc(-c2nnc(C(=O)N3CCc4[nH]cnc4[C@@H]3c3cc4c(C5CC5)cccn4n3)o2)n1 [Example 1901]
< 500 nM	CC(C)c1cccn2nc([C@@H]3c4nc[nH]c4CCN3C(=O)c3nnc(-c4ncccc4F)o3)cc12 [Example 1906, (S)-(5-(3-fluoropyridin-2-yl)-1,3,4-oxadiazol-2-yl)(4-(4-isopropylpyrazolo[1,5-a]pyridin-2-yl)-1,4,6,7-tetrahydro-5H-imidazo[4,5-c]pyridin-5-yl)methanone]
1000 to 5000 nM	O=C(c1nnc(C2CC2)o1)N1CCc2[nH]cnc2[C@@H]1c1cc2c(Br)cccn2n1 [Example 1909, (R)-(4-(4-bromopyrazolo [1,5-a]pyridin-2-yl)-1,4,6,7-tetrahydro-5H-imidazo [4,5-c]pyridin-5-yl)(5-cyclopropyl-1,3,4-oxadiazol-2-yl)methanone]
> 5000 nM	O=C(c1nnc(-c2ccccn2)o1)N1CCc2[nH]cnc2[C@@H]1c1cc2c(Br)cccn2n1 [Example 1910, (R)-(4-(4-bromopyrazolo [1,5-a]pyridin-2-yl)-1,4,6,7-tetrahydro-5H-imidazo[4,5-c]pyridin-5-yl)(5-(pyridin-2-yl)-1,3,4-oxadiazol-2-yl)methanone]
> 5000 nM	CCc1cccn2nc([C@H]3c4nc[nH]c4CCN3C(=O)c3nnc(C(C)(C)F)o3)cc12 [Example 1923, (R)-(4-(4-ethylpyrazolo [1,5-a]pyridin-2-yl)-1,4,6,7-tetrahydro-5H-imidazo [4,5-c]pyridin-5-yl)(5-(2-fluoropropan-2-yl)-1,3,4-oxadiazol-2-yl)methanone]
< 500 nM	CCc1cccn2nc([C@@H]3c4nc[nH]c4CCN3C(=O)c3nnc(-c4cnn(C)c4)o3)cc12 [Example 1924, (S)-(4-(4-ethylpyrazolo [1,5-a]pyridin-2-yl)-1,4,6,7-tetrahydro-5H-imidazo[4,5-c]pyridin-5-yl)(5-(1-methyl-1H-pyrazol-4-yl)-1,3,4-oxadiazol-2-yl)methanone]
< 500 nM	CCc1cccn2nc([C@@H]3c4nc[nH]c4CCN3C(=O)c3nnc(-c4ccn(C)n4)o3)cc12 [Example 1927, (S)-(4-(4-ethylpyrazolo [1,5-a]pyridin-2-yl)-1,4,6,7-tetrahydro-5H-imidazo[4,5-c]pyridin-5-yl)(5-(1-methyl-1H-pyrazol-3-yl)-1,3,4-oxadiazol-2-yl)methanone]
< 500 nM	CC(C)c1cccn2nc([C@@H]3c4nc[nH]c4CCN3C(=O)c3nnc(-c4cnn(C(F)F)c4)o3)cc12 [Example 1936, (S)-(5-(1-(difluoromethyl)-1H-pyrazol-4-yl)-1,3,4-oxadiazol-2-yl)(4-(4-isopropylpyrazolo[1,5-a]pyridin-2-yl)-1,4,6,7-tetrahydro-5H-imidazo[4,5-c]pyridin-5-yl)methanone]
< 500 nM	CC(C)(F)c1nnc(C(=O)N2CCc3[nH]cnc3[C@H]2c2cc3c(Br)cccn3n2)o1 [Example 1938, (S)-(4-(4-bromopyrazolo [1,5-a]pyridin-2-yl)-1,4,6,7-tetrahydro-5H-imidazo [4,5-c]pyridin-5-yl)(5-(2-fluoropropan-2-yl)-1,3,4-oxadiazol-2-yl)methanone]
1000 to 5000 nM	CC(C)(F)c1nnc(C(=O)N2CCc3[nH]cnc3[C@@H]2c2cc3c(Br)cccn3n2)o1 [Example 1939, (R)-(4-(4-bromopyrazolo [1,5-a]pyridin-2-yl)-1,4,6,7-tetrahydro-5H-imidazo [4,5-c]pyridin-5-yl)(5-(2-fluoropropan-2-yl)-1,3,4-oxadiazol-2-yl)methanone]
< 500 nM	Cc1c(-c2nnc(C(=O)N3CCc4[nH]cnc4[C@H]3c3cc4c(C(C)C)cccn4n3)o2)cnn1C [Example 1948, (S)-(5-(1,5-dimethyl-1H-pyrazol-4-yl)-1,3,4-oxadiazol-2-yl)(4-(4-isopropylpyrazolo [1,5-a]pyridin-2-yl)-1,4,6,7-tetrahydro-5H-imidazo[4,5-c]pyridin-5-yl)methanone]
